In paper PMC3464284, “Virtual Screening as a Strategy for the Identification of Xenobiotics Disrupting Corticosteroid Action” (PLoS ONE, 2012):
Where a name gives a salt, the structure may show the parent alone. Read-outs that look alike come from different tables or passages of the source.

What was measured:
Type in all cases: biochemical
11β-HSD2 [1] = target: T1, 11β-HSD2 (Homo sapiens, UniProt P80365); assay: radiolabeled cortisol to cortisone conversion, HEK-293 lysate; settings: for 11β-HSD2 activity (% of control): 20 µM, […] cortisol, […] NAD+, […]°C, […] min
T1 construct: gene HSD11B2; stably expressed in HEK-293 cells, cell lysate
T1 sequence (P80365 1-405): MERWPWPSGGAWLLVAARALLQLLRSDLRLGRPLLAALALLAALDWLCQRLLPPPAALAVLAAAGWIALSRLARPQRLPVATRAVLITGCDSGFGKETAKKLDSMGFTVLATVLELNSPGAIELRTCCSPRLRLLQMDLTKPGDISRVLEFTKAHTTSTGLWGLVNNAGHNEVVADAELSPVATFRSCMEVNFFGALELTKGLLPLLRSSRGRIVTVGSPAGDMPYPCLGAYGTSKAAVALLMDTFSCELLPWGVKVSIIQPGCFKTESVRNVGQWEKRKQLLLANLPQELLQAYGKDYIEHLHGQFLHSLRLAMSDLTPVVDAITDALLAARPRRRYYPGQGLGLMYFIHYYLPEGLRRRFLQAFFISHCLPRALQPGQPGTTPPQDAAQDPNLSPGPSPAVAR

11β-HSD1 [2] = target: T2, 11β-HSD1 (Homo sapiens, UniProt P28845); assay: radiolabeled cortisone to cortisol conversion, HEK-293 lysate; settings: for remaining activity at 20 µM: read-out: 11β-HSD1 activity (% of control); for 11β-HSD1 activity (% of control): 20 µM, […] cortisone, […] NADPH, […]°C, […] min
T2 construct: gene HSD11B1; stably expressed in HEK-293 cells, cell lysate
T2 sequence (P28845 whole entry): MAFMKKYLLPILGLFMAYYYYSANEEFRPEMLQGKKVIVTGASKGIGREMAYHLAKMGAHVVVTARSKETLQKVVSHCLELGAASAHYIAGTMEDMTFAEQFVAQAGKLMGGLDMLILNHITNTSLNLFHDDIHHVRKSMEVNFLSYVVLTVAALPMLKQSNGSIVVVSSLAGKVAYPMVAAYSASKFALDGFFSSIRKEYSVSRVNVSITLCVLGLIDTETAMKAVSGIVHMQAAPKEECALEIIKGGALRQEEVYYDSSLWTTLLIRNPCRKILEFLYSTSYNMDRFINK
Description: radiolabeled cortisone to cortisol conversion, HEK-293 lysate on 11β-HSD1

11β-HSD2 [3] = target: T1, 11β-HSD2; assay: radiolabeled cortisol to cortisone conversion, HEK-293 lysate
11β-HSD1 [4] = target: T2, 11β-HSD1; assay: radiolabeled cortisone to cortisol conversion, HEK-293 lysate
[5] = read-out: 11β-HSD2 activity (% of control)

`C[C@@H]1CC[C@@]2(OC1)O[C@H]1C[C@H]3[C@@H]4CC[C@H]5C[C@@H](O)CC[C@]5(C)[C@H]4CC(=O)[C@]3(C)[C@H]1[C@@H]2C` [Hecogenin] was tested, and the remaining activity at 20 µM (11β-HSD2 [1]; [5]) was 82 ± 2% and the remaining activity at 20 µM (11β-HSD1 [2]) was 49 ± 9%.
Compound `CC[C@@H](C(=O)[C@@H](C)[C@@H](O)[C@H](C)CCc1ccc(C)c(O)c1C(=O)O)[C@H]1O[C@](CC)([C@H]2CC[C@](O)(CC)[C@H](C)O2)C[C@@H]1C` [lasalocid] has an IC50 (11β-HSD2 [3]) of 14 ± 3 µM and a remaining activity at 20 µM (11β-HSD1 [2]) of 84 ± 3%.
For `CCO[Si](CCCS)(OCC)OCC` [3-mercaptopropyl triethoxysilane], the remaining activity at 20 µM (11β-HSD2 [1]; read-out: remaining activity at 20 μM) was 80 ± 7%.
`CCO[Si](CCCSSSSCCC[Si](OCC)(OCC)OCC)(OCC)OCC` [AB110873, bis[3-(triethoxysilyl)propyl] tetrasulfide] was tested, and the “11β-HSD1 activity (% of control)” value (11β-HSD1 [2]) was 79±3.
Compound `CC(C)OC(=O)C(C)(C)Oc1ccc(C(=O)c2ccc(Cl)cc2)cc1` [fenofibrate] has a remaining activity at 20 µM (11β-HSD2 [1]; [5]) of 140 ± 40% and an IC50 (11β-HSD1 [4]) of 3.8 ± 0.3 µM.
`CC[C@H]1CN2CCc3cc(OC)c(OC)cc3[C@@H]2C[C@@H]1C[C@H]1NCCc2cc(O)c(OC)cc21` [(−) Cephaeline dihydrochloride] was tested, and the “11β-HSD2 activity (% of control)” value (11β-HSD2 [1]) was 74±2 and the “11β-HSD1 activity (% of control)” value (11β-HSD1 [2]) was 100±2.
`C[C@]12CC[C@H](O)C[C@H]1CC[C@@H]1[C@@H]2CC[C@]2(C)[C@@H](C3=CC(=O)OC3)CC[C@]12O` [Digitoxigenin] was tested, and the “11β-HSD2 activity (% of control)” value (11β-HSD2 [1]) was 104±4 and the “11β-HSD1 activity (% of control)” value (11β-HSD1 [2]) was 36±2.
